Measurements published in patent publication US20170157112A1, “HIF INHIBITORS” (UCL BUSINESS PLC, priority 2013, published 2017).
Read-outs that look alike come from different tables or passages of the source.

Columns and labels:
HIF activity = assay: U2OS-HRE-luc cell-based HRE-luciferase reporter assay; details: for inhibition of luciferase activity in U2OS-HRE cells: 1 μM, 1% O2 for 16 hours
Protocol: Cells were harvested and luciferase activity was measured in cell lysates using a standard luminometer. Data was represented as relative light units (RLU) for each condition.
(§1) Tubulin was used as a loading control.

eIF-2α phosphorylation = assay: Western blot of eIF-2α phosphorylation in U2OS-HRE-luc cells; assay type: cell-based; details: for eIF-2α phosphorylation (western blot): dose range, normoxia or hypoxia 16 hours
Protocol: Cells were harvested and components of the protein translational machinery were assessed by western blot analysis.
as §1

[1] = system: panel of tumour cell lines; assay: Growth inhibition / toxicity on tumour cell lines; assay type: cell-based
GLUT1 = GLUT1 protein by western blot in U2OS-HRE-luc cells; assay type: cell-based; details: 0.1-1 μM, hypoxia 16 hours
Protocol: (§2) Cells were harvested and assessed for VEGF and GLUT1 protein levels using a quantitative ELISA or by western blot analysis respectively. In addition, tumour cells were exposed to 0.5 or 2.5 μM HIF-Inhib1 in hypoxia, and tumour cell migration was measured using a 2-dimensional filter-based migration assay.

[2] = PK by LCMS in PC3LN5 subcutaneous xenograft mice; assay type: in vivo; details: for concentration at 24 h: intraperitoneal
Protocol: HIF-Inhib1 was administered IP dose of 100 mg·kg^−1 to Nu mice with PC3LN5 xenografts. Mice were killed at 24 h and xenografts removed for PD/PK analysis. Tumour samples were homogenised with 3× (v/w) PBS and 50 μL extracted by addition of 150 μL of methanol. Tumour extracts were analysed by LCMS using reverse-phase Synergi Polar-RP (Phenomenx, 50×2.1 mm) analytical column and positive ion mode ESI+ MRM.

[3] = system: PC3LN5 orthotopic xenograft; assay: PC3LN5 orthotopic mouse xenograft model: tumour growth, metastasis, body weight, PK; assay type: in vivo, mice
Protocol: (§3) PC3LN5 (10^5 cells) were implanted intraprostatically into mice (Nu) and tumours were allowed to develop for 12 days. Mice received HIF-Inhib1 (75 mg·kg^−1) by IP injection daily for 2.5 weeks. Plasma and tumour samples were taken 24 h after the last dose and analysed by LCMS. Tumours were excised and homogenised, and assessed for PD endpoints HIF-1α and VEGF proteins. Local and distant lymph node metastases were also evaluated.

ERK1/2 and AKt/PKB = assay: Western blot of cellular signaling proteins ERK1/2 and AKt/PKB; assay type: cell-based; details: 1 μM, normoxia or hypoxia
Protocol: (§4) U2OS-HRE-luc described in A, were harvested for western blot analysis. FIG. 1B: Western blots show the effects of HIF-Inhib1 on HIF-1α protein in normoxia or hypoxia. Actin was used as a load control. FIG. 1C: Western blots show HIF-1α, phosphorylated ERK1/2 (ERK1/2-P), and AKT/PKB proteins in the absence (−) and presence of 1 μM HIF-Inhib1 in normoxia (norm) or hypoxia (hyp). Actin was used as a load control. FIG. 1D: Western blots show the effects of HIF-Inhib1 (1 μM) on HIF-2α protein levels. UT (untreated), and DMSO treated (−) controls are indicated;

VEGF [4] = assay: PD endpoint VEGF protein in PC3LN5 orthotopic tumours; assay type: in vivo, mice; details: 75 mg/kg IP daily
Protocol: as §3

HIF-2α = assay: Western blot of HIF-2α protein induction in hypoxia; assay type: cell-based; details: 1 μM
Protocol: as §4

[5] = Tolerability of daily IP dosing in mice; details: mouse, in vivo
VEGF [6] = assay: VEGF protein by quantitative ELISA in U2OS-HRE-luc cells; assay type: cell-based
Protocol: as §2

[7] = system: HIF activity and HIF-α expression; assay: HIF activity and HIF-α expression in several cancer cell lines; assay type: cell-based
[8] = PC3LN5 orthotopic xenograft, 75 mg/kg IP daily

**Q.** With `CC[C@H]1CN2CCc3cc(OC)c(OC)cc3[C@@H]2C[C@@H]1C[C@H]1NCCc2cc(OC)c(OC)cc21` [emetine, reference compound] as the compound, how does the “HIF activity (relative light units)” value (HIF activity; emetine 0.017 uM, hypoxia (1% O2) 16 hours) read?
**A.** Its value is “significantly blocked HIF activity”.

**Q.** And the “eIF-2α phosphorylation (western blot)” value (eIF-2α phosphorylation)?
**A.** Its value is “blocks eIF-2α phosphorylation”.

**Q.** For `CCC1=C(C[C@@H]2NCCc3cc(OC)c(OC)cc32)C[C@@H]2c3ccccc3CCN2C1` [UCL-ONY-002], which “inhibition of luciferase activity in U2OS-HRE cells” value (“inhibition of luciferase activity” below) (HIF activity) is on record?
**A.** Its value is “inactive”.

**Q.** For `CCC1=C(C[C@@H]2NCCc3cc(OC)c(OC)cc32)C[C@H]2c3ccccc3CCN2C1` [UCL-ONY-003], which “inhibition of luciferase activity” value (HIF activity) is on record?
**A.** Its value is “inactive”.

**Q.** For `CCC1=C(CC2c3ccc(OC)cc3CCN2S(C)(=O)=O)CC2c3ccccc3CCN2C1` (racemic) [UCL-ONY-004], which “inhibition of luciferase activity” value (HIF activity) is on record?
**A.** The value was “inactive”.

**Q.** Which “concentrations inhibiting growth of a panel of tumour cell lines” value [1] does the source give for `CCC1=C(CC2NCCc3cc(OC)c(OC)cc32)CC2c3ccccc3CCN2C1` (stereo not drawn) [Compound I] here?
**A.** Its value is “submicromolar”.

**Q.** What about the “induction of HIF target protein GLUT1” value (GLUT1) of the same compound?
**A.** The value was “blocks the induction”.

**Q.** And the “HIF activity (HRE-luciferase activity, RLU)” value (HIF activity; 0.1-1 μM, hypoxia (1% O2) 16 hours)?
**A.** Its value is “blocks HIF activity”.

**Q.** And the IC50 (HIF activity; read-out: IC50 for inhibiting HIF activity)?
**A.** The IC50 was roughly 500 nM.

**Q.** And the bioavailability in vivo ([2]; 100 mg/kg IP, PC3LN5 xenograft mice)?
**A.** The bioavailability in vivo was “Good Bioavailability”.

**Q.** What about the “pharmacokinetic properties in vivo” value ([2]; mouse, in vivo) of the same compound?
**A.** Its value is “favourable pharmacokinetic properties”.

**Q.** What about the concentration at 24 h ([2]; mouse, plasma, 100 mg/kg IP, Nu mice with PC3LN5 xenografts, read-out: Plasma concentrations) of the same compound?
**A.** Its concentration at 24 h is 70 to 300 nM.

**Q.** What about the concentration at 24 h ([2]; mouse, tumour (PC3LN5 subcutaneous xenograft), 100 mg/kg IP, PC3LN5 subcutaneous xenografts, Nu mice, LCMS, read-out: Tumour concentrations) of the same compound?
**A.** The concentration at 24 h was 1900 to 35000 nM.

**Q.** And the “PK profile in tumours” value ([3]; 75 mg/kg IP daily, 24 h after last dose, LCMS)?
**A.** Its value is “good PK profile”.

**Q.** And the Mouse body weight ([3]; 16 days of daily dosing, 75 mg/kg IP)?
**A.** The Mouse body weight was “not significantly affected”.

**Q.** And the “metastasis (local and distant lymph nodes)” value [3, 8]?
**A.** Its value is “significantly blocked”.

**Q.** What about the tumour growth [3, 8] of the same compound?
**A.** Its tumour growth is “significantly blocked”.

**Q.** What about the “expression of key cellular signaling proteins ERK1/2 and AKt/PKB” value (ERK1/2 and AKt/PKB) of the same compound?
**A.** Its value is “no significant effect”.

**Q.** And the “VEGF protein in PC3LN5 orthotopic tumours” value (VEGF [4])?
**A.** Its value is “blocked”.

**Q.** What about the “potency in blocking eIF-2α phosphorylation” value (eIF-2α phosphorylation) of the same compound?
**A.** Its value is 250 to 500 nM.

**Q.** What about the “eIF-2α phosphorylation (western blot)” value (eIF-2α phosphorylation) of the same compound?
**A.** The value was “block eIF-2α phosphorylation”.

**Q.** What about the “eIF-2α phosphorylation (western blot)” value (eIF-2α phosphorylation; listed as HIF-Inhib1) of the same compound?
**A.** The value was “blocked eIF-2α phosphorylation in a dose-dependent manner”.

**Q.** What about the “HIF-2α protein induction in hypoxia” value (HIF-2α) of the same compound?
**A.** The value was “blocks HIF-2α protein induction in hypoxia”.

**Q.** What about the MTD [5] of the same compound?
**A.** The MTD was no more than 100 mg/kg.

**Q.** What about the “induction of HIF target protein VEGF” value (VEGF [6]; 0.1-1 μM, hypoxia 16 hours, ELISA) of the same compound?
**A.** Its value is “blocks the induction”.

**Q.** And the “potency in blocking VEGF induction in hypoxia” value (VEGF [6]; hypoxia)?
**A.** The value was 250 to 500 nM.

**Q.** What about the “HIF activity and HIF-α expression in response to hypoxia and growth factors” value [7] of the same compound?
**A.** The value was “inhibits both HIF activity and HIF-α expression”.
